{"source": "patent US8853359B2", "about": "“Endokinin C/D-derived peptides” (University of Miyazaki, priority 2009, dated 2014)", "key": {"[1]": {"test_system": "scratching behavior and thermal hyperalgesia induced by SP or EKA/B", "conditions": "Non-patent document 3, cited from earlier work"}, "[2]": {"test_system": "carrageenan-induced inflammation", "assay": "carrageenan-induced increase in paw size, EKC/D injected 1 hour after carrageenan", "type": "in vivo, rat", "description": "The vertical axis of the graph in FIG. 4 indicates increases (%) in paw size and the horizontal axis indicates the time after administration of saline (100 μl: saline) or EKC/D with “minutes,” thereby showing the time course changes of anti-inflammatory effects of EKC/D administration on carrageenan-induced inflammation. The paw size before carrageenan administration was determined to be 100%. Paw size was increased by about 50% (saline) as measured using a paw size meter at 1 hour after carrageenan injection. This state continued for about 60 minutes (saline). […] When 10^−3M EKC/D (100 nmol/100 μl) was injected, paw size had decreased to about 40% at 10 minutes after, to about 20% at 30 minutes after, and to about 40% at 50 minutes after injection."}, "[3]": {"test_system": "carrageenan-induced thermal hyperalgesia", "assay": "carrageenan-induced thermal hyperalgesia (withdrawal latency), EKC/D injected 1 hour after carrageenan", "type": "in vivo, rat", "source_text": "Intraplantar injection of carrageenan induces thermal hyperalgesia accompanying inflammation. To examine induction of thermal hyperalgesia, noxious thermal stimulation was applied to plantar using infrared rays. It can be said that thermal hyperalgesia takes place when the latency period of the withdrawal response becomes shorter than that for untreated rats. In FIG. 5, the vertical axis of the graph indicates the latency period in seconds and the horizontal axis of the graph indicates the time after injection of saline or EKC/D in minutes. The latency period in untreated rats (control) after noxious thermal stimulation was about 21 seconds. When saline (100 μl) was injected at 1 hour after carrageenan injection, the latency period was about 13 seconds. […] This state was sustained for 60 minutes (saline). […] When 10^−5M (1 nmol/100 μl) and 10^−6M ([…]) EKC/D were injected, the latency period before rats responded to noxious thermal stimulation was about 17 seconds, which was longer than that in the case of treatment with saline (EKC/D10^−5 M and EKC/D 10^−6 M)."}, "[4]": {"test_system": "substance P-induced scratching behavior", "assay": "substance P-induced scratching behavior after intrathecal pre-administration of test peptide", "type": "in vivo, rat", "description": "In Example 1, 10^−3M (10 nmol/10 μl) EKC/D or D-EKC/D (1), (2) or (3) was administered to intrathecally catheterized rats via catheters. After the predetermined time periods denoted on the horizontal axis in FIG. 1, the numbers of scratching events (scratching behavior) induced by intrathecal administration of 10^−3M (10 nmol/10 μl) substance P (hereafter, referred to as “SP”) were determined. Here, the expression “10^−3M (10 nmol/10 μl) EKC/D or D-EKC/D (1), (2), or (3) was administered” refers to a situation in which 10 μl in total of a solution (that is, 10^−3M solution) containing 10 nmol of EKC/D or D-EKC/D (1), (2), or (3) was all administered. The expression, “ . . . administration of 10^−3M substance P (10 nmol/10 μl)” refers to a situation in which 10 μl in total of a solution (that is, 10^−3M solution) containing 10 nmol of the substance was all administered. The same similarly applies below.\nMeanwhile, saline (10 μl) was intrathecally administered to intrathecally catheterized rats via catheters and then, after 30 minutes, 10^−3M SP (10 nmol/10 μl) was intrathecally administered to the rats. The number of the thus induced scratching events was determined to be the number of scratching events in the control group. The control group is denoted with saline-4-SP in FIG. 1.\nThe vertical axis of the graph in FIG. 1 indicates changes in the numbers of scratching events (represented by relative values) due to administration of 10^−3M EKC/D or D-EKC/D (1), (2), or (3) when the number of scratching events (of untreated rats in a control group) induced by intrathecal administration of 10^−3M substance P was determined to be 100%. Meanwhile, the horizontal axis indicates the intervals between the administration of EKC/D, D-EKC/D (1), (2), or (3) and 10^−3M substance P. […]\nThe test was conducted with procedures similar to those in Example 1, except for 4 hours of interval between the administration of each test peptide and the administration of substance P. The concentration of each test peptide and that of substance P for administration were determined to be 10^−3M (10 nmol/10 μl), similarly to Example 1. The number of scratching events in the control group was determined with procedures similar to those in Example 1, such that substance P was administered at 30 minutes after administration of saline (10 μl) and then the number was determined."}, "[5]": {"test_system": "carrageenan-induced inflammation", "assay": "carrageenan-induced increase in paw size after intrathecal pre-administration of peptide", "type": "in vivo, rat", "description": "(§1) In Example 6, 10^−3M (10 nmol/10 μl) D-EKC/D (3), (5), or (7), Spantide I, or saline (10 μl) was administered to intrathecally catheterized rats via catheters. Four hours later, 100 μl of 2% carrageenan (2 mg/100 μl) was subcutaneously administered to rat plantar.\nPaw size was measured with time for 60 minutes after carrageenan administration. The paw size (control) before carrageenan administration was designated as the basal level, and the increases in paw size were then calculated."}, "[6]": {"test_system": "carrageenan-induced thermal hyperalgesia", "assay": "withdrawal latency to noxious thermal stimulation after carrageenan, intrathecal pre-administration of peptide", "type": "in vivo, rat", "conditions": "10^-3M (10 nmol/10 μl) peptide intrathecal; 2% carrageenan 4 hours later; FIG. 9B", "description": "as §1\nMeanwhile, noxious thermal stimulation was applied to paw plantar using infrared rays at 10-minute intervals after carrageenan administration. The time (latency period) required for withdrawal response to take place was measured. The latency period before untreated rats following noxious thermal stimulation was designated as the control latency period."}, "[7]": {"test_system": "formalin-induced pain behavior", "assay": "formalin-induced pain behavior (flinching) after intrathecal pre-administration of peptide", "type": "in vivo, rat", "description": "In Example 5, 10^−3M (10 nmol/10 μl) D-EKC/D (3), (5), or (7), Spantide I, or saline (10 μl) was administered to intrathecally catheterized rats via catheters and then 4 hours later, 50 μl of 2% formalin was administered subcutaneously to hind paws of rats. The number of flinching (pain behavior) was determined for 60 minutes after formalin administration, so that the degree of pain could be evaluated. During the 10-minute period after formalin administration (referred to as phase I), pain behavior was measured once every 2 minutes (1 minute per measurement). During the period from 10 minutes to 60 minutes after formalin administration (referred to as phase II), pain behavior was measured once every 5 minutes (1 minute per measurement), so that the degree of pain could be evaluated. During phase I, behavior (phasic pain) resulting from chemical stimulation accompanying formalin administration was observed. During phase II, tonic pain following the phasic pain was observed.\nThe horizontal axis indicates time (minutes) after formalin administration and the vertical axis indicates the measured number of pain behavior per minute."}}, "note": "Ends that are not written are not given here.", "data": [{"substance": "Ala-Tyr-Gln-Leu-Glu-His-Thr-Phe-Gln-Gly-Leu-Leu-NH2 (AYQLEHTFQGLL-NH2; listed as Homo sapiens) [EKC/D]", "values": [{"measurement": "SP-induced hyperalgesia", "setting": "[1]; 5 minutes after administration of EKC/D", "result": "suppressed"}, {"measurement": "induction of scratching behavior or thermal hyperalgesia by the peptide itself", "setting": "[1]; intrathecal administration to a rat", "result": "does not induce"}, {"measurement": "scratching behavior and thermal hyperalgesia induced by administration of SP or EKA/B", "setting": "[1]; pre-administration of the peptide, intrathecal", "result": "suppresses"}, {"measurement": "increases in paw size accompanying inflammation due to carrageenan, overall", "setting": "[2]; 10^-3M EKC/D (100 nmol/100 μl)", "result": "significantly suppressed"}, {"measurement": "increase in paw size", "setting": "[2]; 10^-3M EKC/D (100 nmol/100 μl), 10 minutes after injection, saline about 50%", "result": "about 40%"}, {"measurement": "increase in paw size", "setting": "[2]; 10^-3M EKC/D (100 nmol/100 μl), 30 minutes after injection", "result": "about 20%"}, {"measurement": "increase in paw size", "setting": "[2]; 10^-3M EKC/D (100 nmol/100 μl), 50 minutes after injection", "result": "about 40%"}, {"measurement": "anti-inflammatory effects, overall", "setting": "[2]; 10^-4M EKC/D (10 nmol/100 μl)", "result": "weak anti-inflammatory effects"}, {"measurement": "increase in paw size", "setting": "[2]; 10^-4M EKC/D (10 nmol/100 μl), 30 minutes after injection", "result": 40, "unit": "%"}, {"measurement": "paw size", "setting": "[2]; 10^-4M EKC/D (10 nmol/100 μl), 60 minutes after injection", "result": "almost at a normal level"}, {"measurement": "effect on paw size", "setting": "[2]; 10^-5M EKC/D (1 nmol/100 μl)", "result": "No clear effects"}, {"measurement": "effect on paw size", "setting": "[2]; 10^-6M EKC/D (100 pmol/100 μl)", "result": "No clear effects"}, {"measurement": "latency period following noxious thermal stimulation", "setting": "[3]; 10^-3M EKC/D (100 nmol/100 μl), untreated about 21 seconds, saline about 13 seconds", "result": "almost the same as that in the case of untreated rats"}, {"measurement": "latency period following noxious thermal stimulation", "setting": "[3]; 10^-4M EKC/D (10 nmol/100 μl)", "result": "almost the same tendency as that in the case of 10^−3M EKC/D"}, {"measurement": "latency period following noxious thermal stimulation", "setting": "[3]; 10^-5M EKC/D (1 nmol/100 μl)", "result": "about 17 seconds"}, {"measurement": "latency period following noxious thermal stimulation", "setting": "[3]; 10^-6M EKC/D (100 μmol/100 μl)", "result": "about 17 seconds"}, {"measurement": "latency period following noxious thermal stimulation", "setting": "[3]; 10^-7M EKC/D (10 pmol/100 μl)", "result": "almost the same as that in the case of saline"}, {"measurement": "number of scratching events induced by substance P, relative to control group (saline+SP = 100%)", "setting": "[4]; 10^-3M (10 nmol/10 μl) peptide intrathecal, 10^-3M SP 30 minutes after peptide, FIG. 1", "result": "about 60%"}, {"measurement": "duration of suppressive effects on substance P-induced scratching behavior", "setting": "[4]; 10^-3M peptide intrathecal, 10^-3M SP", "result": "≤ 1", "unit": "h"}, {"measurement": "number of scratching events induced by substance P, relative to control group", "setting": "[4]; 10^-3M peptide intrathecal, SP 1 hour after peptide, FIG. 1", "result": "restored 1 hour later to the same degree as that for the control group"}]}, {"substance": "Glu-His-Thr-Phe-Gln-DTrp-Leu-Leu-NH2 (EHTFQXLL; HELM PEPTIDE1{E.H.T.F.Q.[dW].L.L.[am]}$$$$V2.0; N-terminus assumed; SMILES CC(C)C[C@H](NC(=O)[C@H](CC(C)C)NC(=O)[C@@H](Cc1c[nH]c2ccccc12)NC(=O)[C@H](CCC(N)=O)NC(=O)[C@H](Cc1ccccc1)NC(=O)[C@@H](NC(=O)[C@H](Cc1c[nH]cn1)NC(=O)[C@@H](N)CCC(=O)O)[C@@H](C)O)C(N)=O) [D-EKC/D (5)]", "values": [{"measurement": "rate of increase of paw sizes", "setting": "[5]; 10^-3M (10 nmol/10 μl) peptide intrathecal, 2% carrageenan 4 hours later, FIG. 9A", "result": "significant decreases"}, {"measurement": "effects on paw size and withdrawal time compared with Spantide I", "setting": "[5]; 10^-3M intrathecal, carrageenan 4 hours later", "result": "sustained to a greater extent than the effects of Spantide I"}, {"measurement": "withdrawal time (latency period)", "setting": "[6]", "result": "significant increases"}, {"measurement": "numbers of pain behavior during phase I", "setting": "[7]; 10^-3M (10 nmol/10 μl) peptide intrathecal, 2% formalin 4 hours later, 0-10 minutes after formalin", "result": "significantly decreased"}, {"measurement": "numbers of pain behavior during phase II", "setting": "[7]; 10^-3M (10 nmol/10 μl) peptide intrathecal, 2% formalin 4 hours later, 10-60 minutes after formalin", "result": "significantly decreased"}, {"measurement": "suppressing effects on formalin-induced pain behavior compared with Spantide I", "setting": "[7]; 10^-3M intrathecal, formalin 4 hours later", "result": "sustained longer compared with the effects of Spantide I"}, {"measurement": "scratching behavior induced by substance P", "setting": "[4]; Example 2, FIG. 2, 10^-3M peptide, SP 4 hours after peptide, control about 380 scratching", "result": "almost never induced"}, {"measurement": "suppressive effects on scratching as administration interval is prolonged", "setting": "[4]; Example 2, FIG. 2, 10^-3M peptide, interval 8 hours and then 14 hours", "result": "gradually attenuated"}, {"measurement": "scratching behavior induced by substance P / suppressive effects", "setting": "[4]; Example 3, FIG. 3, 10^-3M peptide, SP 4 hours after peptide, control 380 scratching", "result": "attenuated"}]}]}
